{"source": "patent US20250352520A1", "about": "“USE OF DEXPRAMIPEXOLE FOR THE TREATMENT OF EOSINOPHILIC COPD” (Areteia Therapeutics, Inc., priority 2024, published 2025)", "procedure": "Participants performed post-BD spirometry at specific visits as noted in the SOA.\nAfter completing the pre-BD spirometry, participants inhaled four puffs of albuterol/salbutamol (site sourced) metered dose inhaler (approximately 100 μg albuterol/salbutamol base per actuation), with each actuation 1 minute apart. Post-BD spirometry was assessed within 15 to 30 minutes after inhalation of albuterol/salbutamol.", "key": {"[1]": {"settings": "AECR≥0.5 patients, after 16 weeks"}, "[2]": {"settings": "Week 16, <50% AEC reduction at Week 16"}, "[3]": {"settings": "Week 16, <50% AEC reduction at Week 16 (N = 4), 150 mg BID"}}, "data": [{"smiles": "CCCN[C@@H]1CCc2nc(N)sc2C1", "note": "[Dexpramipexole, (6R)-2-amino-4,5,6,7-tetrahydro-6-(propylamino)benzothiazole]", "values": [{"measurement": "Post-BD FEV1, absolute increase", "setting": "[1]", "result": 220, "unit": "mL"}, {"measurement": "Post-BD FEV1, improvement compared to baseline", "setting": "[1]", "result": 16.6, "unit": "%"}, {"measurement": "Post-BD FEF25-75, absolute increase", "setting": "AECR≥0.5 patients, week 16", "result": 130, "unit": "mL"}, {"measurement": "Post-BD FEF25-75, average increase compared to baseline", "setting": "AECR≥0.5 patients, week 16", "result": 26.7, "unit": "%"}, {"measurement": "Post-BD FVC, absolute increase", "setting": "AECR≥0.5 patients, week 16", "result": 226.7, "unit": "mL"}, {"measurement": "Post-BD FVC, average increase compared to baseline", "setting": "AECR≥0.5 patients, week 16", "result": 9.2, "unit": "%"}, {"measurement": "Post-BD Peak Flow, average improvement compared to baseline", "setting": "AECR≥0.5 patients, week 16", "result": 40.2, "unit": "%"}, {"measurement": "Post-BD FEV1 % change from baseline, Max", "setting": "[2]", "result": 19, "unit": "%"}, {"measurement": "Post-BD FEV1 % change from baseline, Mean ± SD", "setting": "[2]", "result": "−0.1± 21.10", "unit": "%"}, {"measurement": "Post-BD FEV1 % change from baseline, Median", "setting": "[2]", "result": 4.8, "unit": "%"}, {"measurement": "Post-BD FEV1 % change from baseline, Min", "setting": "[2]", "result": "−29", "unit": "%"}, {"measurement": "Post-BD FEV1 % change from baseline, Q1", "setting": "[2]", "result": "−15", "unit": "%"}, {"measurement": "Post-BD FEV1 % change from baseline, Q3", "setting": "[2]", "result": 15, "unit": "%"}, {"measurement": "Post-BD FEV1 Observed, Max", "setting": "[2]", "result": 1950, "unit": "mL"}, {"measurement": "Post-BD FEV1 Observed, Mean ± SD", "setting": "[2]", "result": "1522.5 ± 546.34", "unit": "mL"}, {"measurement": "Post-BD FEV1 Observed, Median", "setting": "[2]", "result": 1705.0, "unit": "mL"}, {"measurement": "Post-BD FEV1 Observed, Min", "setting": "[2]", "result": 730, "unit": "mL"}, {"measurement": "Post-BD FEV1 Observed, Q1", "setting": "[2]", "result": 1170, "unit": "mL"}, {"measurement": "Post-BD FEV1 Observed, Q3", "setting": "[2]", "result": 1875, "unit": "mL"}, {"measurement": "Post-BD FEV1 change from baseline, Max", "setting": "[2]", "result": 290, "unit": "mL"}, {"measurement": "Post-BD FEV1 change from baseline, Mean ± SD", "setting": "[2]", "result": "40.0 ± 260.90", "unit": "mL"}, {"measurement": "Post-BD FEV1 change from baseline, Median", "setting": "[2]", "result": 85.0, "unit": "mL"}, {"measurement": "Post-BD FEV1 change from baseline, Min", "setting": "[2]", "result": -300, "unit": "mL"}, {"measurement": "Post-BD FEV1 change from baseline, Q1", "setting": "[2]", "result": -160, "unit": "mL"}, {"measurement": "Post-BD FEV1 change from baseline, Q3", "setting": "[2]", "result": 240, "unit": "mL"}, {"measurement": "Post bronchodilator Forced Expiratory Flow 25-75% (FEF25-75), % CFB (Percent change from baseline), Max", "setting": "[3]", "result": 54, "unit": "%"}, {"measurement": "Post bronchodilator Forced Expiratory Flow 25-75% (FEF25-75), % CFB (Percent change from baseline), Mean ± SD", "setting": "[3]", "result": "9.7 ± 40.69", "unit": "%"}, {"measurement": "Post bronchodilator Forced Expiratory Flow 25-75% (FEF25-75), % CFB (Percent change from baseline), Median", "setting": "[3]", "result": 7.3, "unit": "%"}, {"measurement": "Post bronchodilator Forced Expiratory Flow 25-75% (FEF25-75), % CFB (Percent change from baseline), Min", "setting": "[3]", "result": "−29", "unit": "%"}, {"measurement": "Post bronchodilator Forced Expiratory Flow 25-75% (FEF25-75), % CFB (Percent change from baseline), Q1", "setting": "[3]", "result": "−25", "unit": "%"}, {"measurement": "Post bronchodilator Forced Expiratory Flow 25-75% (FEF25-75), % CFB (Percent change from baseline), Q3", "setting": "[3]", "result": 44, "unit": "%"}, {"measurement": "Post bronchodilator Forced Expiratory Flow 25-75% (FEF25-75), CFB (Change from baseline), Max", "setting": "[3]", "result": 290, "unit": "mL/s"}, {"measurement": "Post bronchodilator Forced Expiratory Flow 25-75% (FEF25-75), CFB (Change from baseline), Mean ± SD", "setting": "[3]", "result": "90.0 ± 225.24", "unit": "mL/s"}, {"measurement": "Post bronchodilator Forced Expiratory Flow 25-75% (FEF25-75), CFB (Change from baseline), Median", "setting": "[3]", "result": 90.0, "unit": "mL/s"}, {"measurement": "Post bronchodilator Forced Expiratory Flow 25-75% (FEF25-75), CFB (Change from baseline), Min", "setting": "[3]", "result": -110, "unit": "mL/s"}, {"measurement": "Post bronchodilator Forced Expiratory Flow 25-75% (FEF25-75), CFB (Change from baseline), Q1", "setting": "[3]", "result": -105, "unit": "mL/s"}, {"measurement": "Post bronchodilator Forced Expiratory Flow 25-75% (FEF25-75), CFB (Change from baseline), Q3", "setting": "[3]", "result": 285, "unit": "mL/s"}, {"measurement": "Post bronchodilator Forced Expiratory Flow 25-75% (FEF25-75), Observed, Max", "setting": "[3]", "result": 1090, "unit": "mL/s"}, {"measurement": "Post bronchodilator Forced Expiratory Flow 25-75% (FEF25-75), Observed, Mean ± SD", "setting": "[3]", "result": "650.0 ± 382.19", "unit": "mL/s"}, {"measurement": "Post bronchodilator Forced Expiratory Flow 25-75% (FEF25-75), Observed, Median", "setting": "[3]", "result": 635.0, "unit": "mL/s"}, {"measurement": "Post bronchodilator Forced Expiratory Flow 25-75% (FEF25-75), Observed, Min", "setting": "[3]", "result": 240, "unit": "mL/s"}, {"measurement": "Post bronchodilator Forced Expiratory Flow 25-75% (FEF25-75), Observed, Q1", "setting": "[3]", "result": 340, "unit": "mL/s"}, {"measurement": "Post bronchodilator Forced Expiratory Flow 25-75% (FEF25-75), Observed, Q3", "setting": "[3]", "result": 960, "unit": "mL/s"}, {"measurement": "Post bronchodilator Forced Vital Capacity (FVC), % CFB (Percent change from baseline), Max", "setting": "[3]", "result": 18, "unit": "%"}, {"measurement": "Post bronchodilator Forced Vital Capacity (FVC), % CFB (Percent change from baseline), Mean ± SD", "setting": "[3]", "result": "3.0 ± 14.06", "unit": "%"}, {"measurement": "Post bronchodilator Forced Vital Capacity (FVC), % CFB (Percent change from baseline), Median", "setting": "[3]", "result": 4.6, "unit": "%"}, {"measurement": "Post bronchodilator Forced Vital Capacity (FVC), % CFB (Percent change from baseline), Min", "setting": "[3]", "result": "−16", "unit": "%"}, {"measurement": "Post bronchodilator Forced Vital Capacity (FVC), % CFB (Percent change from baseline), Q1", "setting": "[3]", "result": "−6", "unit": "%"}, {"measurement": "Post bronchodilator Forced Vital Capacity (FVC), % CFB (Percent change from baseline), Q3", "setting": "[3]", "result": 12, "unit": "%"}, {"measurement": "Post bronchodilator Forced Vital Capacity (FVC), CFB (Change from baseline), Max", "setting": "[3]", "result": 450, "unit": "mL"}, {"measurement": "Post bronchodilator Forced Vital Capacity (FVC), CFB (Change from baseline), Mean ± SD", "setting": "[3]", "result": "70.0 ± 388.16", "unit": "mL"}, {"measurement": "Post bronchodilator Forced Vital Capacity (FVC), CFB (Change from baseline), Median", "setting": "[3]", "result": 150.0, "unit": "mL"}, {"measurement": "Post bronchodilator Forced Vital Capacity (FVC), CFB (Change from baseline), Min", "setting": "[3]", "result": -470, "unit": "mL"}, {"measurement": "Post bronchodilator Forced Vital Capacity (FVC), CFB (Change from baseline), Q1", "setting": "[3]", "result": -180, "unit": "mL"}, {"measurement": "Post bronchodilator Forced Vital Capacity (FVC), CFB (Change from baseline), Q3", "setting": "[3]", "result": 320, "unit": "mL"}, {"measurement": "Post bronchodilator Forced Vital Capacity (FVC), Observed, Max", "setting": "[3]", "result": 3460, "unit": "mL"}, {"measurement": "Post bronchodilator Forced Vital Capacity (FVC), Observed, Mean ± SD", "setting": "[3]", "result": "3082.5 ± 447.84", "unit": "mL"}, {"measurement": "Post bronchodilator Forced Vital Capacity (FVC), Observed, Median", "setting": "[3]", "result": 3165.0, "unit": "mL"}, {"measurement": "Post bronchodilator Forced Vital Capacity (FVC), Observed, Min", "setting": "[3]", "result": 2540, "unit": "mL"}, {"measurement": "Post bronchodilator Forced Vital Capacity (FVC), Observed, Q1", "setting": "[3]", "result": 2715, "unit": "mL"}, {"measurement": "Post bronchodilator Forced Vital Capacity (FVC), Observed, Q3", "setting": "[3]", "result": 3450, "unit": "mL"}, {"measurement": "Post bronchodilator Peak Flow, % CFB (Percent change from baseline), Max", "setting": "[3]", "result": 42, "unit": "%"}, {"measurement": "Post bronchodilator Peak Flow, % CFB (Percent change from baseline), Mean ± SD", "setting": "[3]", "result": "16.9 ± 28.64", "unit": "%"}, {"measurement": "Post bronchodilator Peak Flow, % CFB (Percent change from baseline), Median", "setting": "[3]", "result": 18.1, "unit": "%"}, {"measurement": "Post bronchodilator Peak Flow, % CFB (Percent change from baseline), Min", "setting": "[3]", "result": "−10", "unit": "%"}, {"measurement": "Post bronchodilator Peak Flow, % CFB (Percent change from baseline), Q1", "setting": "[3]", "result": "−8", "unit": "%"}, {"measurement": "Post bronchodilator Peak Flow, % CFB (Percent change from baseline), Q3", "setting": "[3]", "result": 42, "unit": "%"}, {"measurement": "Post bronchodilator Peak Flow, CFB (Change from baseline), Max", "setting": "[3]", "result": 150, "unit": "L/min"}, {"measurement": "Post bronchodilator Peak Flow, CFB (Change from baseline), Mean ± SD", "setting": "[3]", "result": "51.5 ± 88.04", "unit": "L/min"}, {"measurement": "Post bronchodilator Peak Flow, CFB (Change from baseline), Median", "setting": "[3]", "result": 46.0, "unit": "L/min"}, {"measurement": "Post bronchodilator Peak Flow, CFB (Change from baseline), Min", "setting": "[3]", "result": -36, "unit": "L/min"}, {"measurement": "Post bronchodilator Peak Flow, CFB (Change from baseline), Q1", "setting": "[3]", "result": -22, "unit": "L/min"}, {"measurement": "Post bronchodilator Peak Flow, CFB (Change from baseline), Q3", "setting": "[3]", "result": 125, "unit": "L/min"}, {"measurement": "Post bronchodilator Peak Flow, Observed, Max", "setting": "[3]", "result": 509, "unit": "L/min"}, {"measurement": "Post bronchodilator Peak Flow, Observed, Mean ± SD", "setting": "[3]", "result": "326.0 ± 148.82", "unit": "L/min"}]}]}
